Among the test systems are SF-295 CNS; HOP-62 NSCLC; SK-MEL-5 melanoma; A498 renal; MDA-MB-435; HT29 colon; K-562 leukemia; HCC-2998 colon; UACC-257 melanoma; NCI-H226 lung.
Test in all cases: NCI anticancer screen, dose series, 48 h

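In this assay, cells in 96-well plates receive the compound at five concentrations for 48 hours. Endpoints are linearly interpolated between the surrounding concentrations. GI50: concentration for 50% inhibition of growth. TGI: total growth inhibition.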 Bounds are passed on as bounds.

As to `COc1ccc(Cn2c(Br)c3c(c2-c2cc(OC)c(OC)c(OC)c2)CCc2sc(NC(C)=O)nc2-3)cc1`, the GI50 with SF-295 CNS is 2.41 µM; in the assay with HOP-62 NSCLC, 5.52 µM; in the assay with SK-MEL-5 melanoma, 2.82 µM; in the assay with A498 renal it was 2.5 µM; in the assay with MDA-MB-435, 0.613 µM; in the assay on HT29 colon, 3.41 µM. The GI50 in the assay on K-562 leukemia is 3.67 µM; in the assay with HCC-2998 colon, 3.58 µM; with UACC-257 melanoma, 98.5 µM; in the assay on NCI-H226 lung, 39.3 µM. In addition, the TGI with SF-295 CNS is 8.54 µM; with HOP-62 NSCLC, > 100 µM; with SK-MEL-5 melanoma it was 21.4 µM; in the assay with A498 renal, 9.58 µM; in the assay on MDA-MB-435, 4.36 µM; in the assay with HT29 colon, 11.1 µM. For the same compound, the TGI with K-562 leukemia, with HCC-2998 colon, with UACC-257 melanoma and with NCI-H226 lung was > 100 µM in each case.

Turning to `O=C(CN1CCN(c2ccc(Cl)cc2)CC1)N1CCN(c2nnc(-c3ccccc3)c(-c3ccccc3)n2)CC1`, the GI50 in the assay with SF-295 CNS is 4.88 µM; with HOP-62 NSCLC it was > 100 µM; with SK-MEL-5 melanoma it was 2.11 µM; with A498 renal it was > 100 µM; in the assay with MDA-MB-435, 7.25 µM; with HT29 colon, 2.43 µM. For the same compound, the GI50 with K-562 leukemia is 5.91 µM; in the assay on HCC-2998 colon it was 9.29 µM; in the assay with UACC-257 melanoma, 26.6 µM; with NCI-H226 lung, > 100 µM. For the same compound, the TGI in the assay with SF-295 CNS was > 100 µM; in the assay on HOP-62 NSCLC, > 100 µM; in the assay on SK-MEL-5 melanoma it was 8.31 µM; in the assay with A498 renal, > 100 µM; in the assay with MDA-MB-435, > 100 µM; in the assay on HT29 colon it was 19.5 µM. For the same compound, the TGI in the assay on K-562 leukemia, in the assay with HCC-2998 colon, in the assay on UACC-257 melanoma and in the assay with NCI-H226 lung was > 100 µM each time.

As to `C/C(=N\NC(=O)c1ccncc1)c1ccc(O)cc1O`, the GI50 was 2.39 µM in the assay with SF-295 CNS; 3.93 µM with HOP-62 NSCLC; 3.47 µM in the assay on SK-MEL-5 melanoma; 8.61 µM in the assay on A498 renal; 5.03 µM with MDA-MB-435; 8.09 µM in the assay on HT29 colon. Moreover, the GI50 with K-562 leukemia is 6.62 µM; with HCC-2998 colon, 3.59 µM; in the assay with UACC-257 melanoma, 4.06 µM; with NCI-H226 lung it was 5.14 µM. Also, the TGI is 6.69 µM in the assay on SF-295 CNS; > 100 µM with HOP-62 NSCLC; 29.6 µM with SK-MEL-5 melanoma; > 100 µM with A498 renal; > 100 µM with MDA-MB-435; > 100 µM in the assay on HT29 colon. The TGI with K-562 leukemia is > 100 µM; in the assay on HCC-2998 colon, > 100 µM; in the assay on UACC-257 melanoma, 88.5 µM; in the assay with NCI-H226 lung it was 80.9 µM.

For the origin of these results see PubChem BioAssay (NCI).
